Experimental data: US20090192137A1, “Dialysis method” (AstraZeneca AB, priority 1993, published 2009)

What was measured:
[1] = Pig study: clearance of iohexol to monitor filter clearance; format: in vivo; details: Swedish Land Race, plasma and dialysing solution, intravenous, 6000 mg, dialysis filter clearance, measured every half-hour, two experiments
Method: (§1) Before connection of the efferent and afferent blood lines, 20 mL (300 mg/mL) of iohexol (Omnipaque®, Nycomed AB, Lidingö, Sweden) was administered in the ear vein to monitor filter clearance. Two minutes before the start of dialysis, 0.15 μmol/kg of melagatran was given via the right femoral vein as a bolus.
Amounts of iohexol in plasma and dialysing solution were determined at the Laboratory of the Division of Nephrology (Sahlgren's University Hospital, Gothenberg, Sweden) using a Reanalyzer PRX 90 (Provalid AB Lund, Sweden).

[2] = tested on: anaesthetised pigs without kidney function; assay: Pig study: prevention of coagulation and maintained filter function during haemodialysis; format: in vivo
Excerpt: The aim of this study was to test whether melagatran, given via the dialysing solution during dialysis could prevent coagulation and allow a maintained filter function throughout the session in acute experiments with anaesthetised pigs without kidney function.
To avoid very early thrombotic occlusion of blood lines and filters, which, if observed, would have prevented the drawing of meaningful conclusions regarding the utility of the method, an i.v. bolus dose of melagatran was given immediately before the start of extracorporeal blood circulation in these experiments.
(§2) The anaesthetised pigs were subjected to bilateral ligation of renal arteries and veins using lateral flank approaches. The wounds were then closed and the animals were placed on their backs. Two catheters (Kimal, K41/3B/LL, Uxbridge, England) were inserted into the right femoral artery and vein for connection to the dialysis equipment. The artery catheter was used to provide blood to (efferent blood line), and the vein catheter to receive blood from (afferent blood line), the dialysis filter. One polyethylene catheter (Intramedic PE-200, Clay Adams, Parsippany, N.J., USA) was inserted into an artery (right saphenous in pig A and brachial in pig B) for blood pressure (MAP) recording (transducer Peter von Berg Medizintechnik GmbH, Kirchseeon/Eglharting, Germany) and for blood samples, pH and blood gas measurements.
Before the start of dialysis, the LunDia Pro 600 dialysis filter (Gambro, Lund, Sweden) was primed on both sides for 15 minutes with Biosol A201.5 glucose (Pharmalink, Solna, Sweden) dialysis concentrate diluted 1:35 using a Gambro AK-100 (Grambro. Lund, Sweden) haemodialysis equipment (see FIG. 5). The dialysis concentrate was supplemented with melagatran (35 μM; thus providing 1 μM after dilution). The flow rate was adjusted to 500 mL/min on the dialysing solution side and to 250 mL/min on the blood side of the membrane by separate pumps. Pressure was measured (transducer Peter von Berg Medizintechnik) on both sides of the dialysis membrane. […]

thrombin [3] = biological target: T1, thrombin (Sus scrofa, UniProt Q19AZ8); details: TAS equipment, during dialysis session
Method: For the determination of activated partial thromboplastin time (APTT), ecarin clotting time (ECT) and the amount of melagatran in plasma, twelve aliquots of blood were drawn at specific time points into plastic tubes containing one volume of 0.13 M sodium citrate. Plasma was recovered after immediate centrifugation (10,000 g for 5 minutes) and stored at −20° C. prior to analysis. For the determination of the amount of iohexol in plasma, blood was drawn in heparinized tubes, centrifuged is (10,000 g for 5 minutes) and stored at −20° C. prior to analysis.
ECT was determined in 30 μL citrate plasma using a TAS device (Thrombolytic Assessment System, Cardiovascular Diagnostics Inc., Raleigh, N.C.) and appropriate solid reagent test cards, as recommended.

[4] = Pig study: concentration of melagatran in plasma and dialysis outlet during dialysis; format: in vivo
Method: Two Swedish Land Race pigs weighing 59 and 57 kg respectively were used. Anaesthesia was induced using Ketaminol® (10 mg/kg, i.m. Veterinaria AG, Switzerland) and Dormicum® (1 to 2 mg/kg, i.m. Roche, Basel, Switzerland), followed by, after 20 minutes, Diprivan® ([…] i.v. Zeneca Limited, Macclesfield, Cheshire, United Kingdom), intubated and ventilated at 15 cycles/minute with air containing 2 to 3% Forene® (Abbott Scandinavia AB, Kista. Sweden) using a Servo Ventilator 900C (Siemens Elema, Solna, Sweden).
as §2
Before the start of dialysis, the LunDia Pro 600 dialysis filter (Gambro, Lund, Sweden) was primed on both sides for 15 minutes with Biosol A201.5 glucose (Pharmalink, Solna, Sweden) dialysis concentrate diluted 1:35 using a Gambro AK-100 (Grambro. Lund, Sweden) haemodialysis equipment (see FIG. 5). The dialysis concentrate was supplemented with melagatran (35 μM; thus providing 1 μM after dilution). The flow rate was adjusted to 500 mL/min on the dialysing solution side and to 250 mL/min on the blood side of the membrane by separate pumps. Pressure was measured (transducer Peter von Berg Medizintechnik) on both sides of the dialysis membrane.
as §1
After connection of blood lines and two minutes after the administration of the melagatran bolus dose, dialysis was started and carried out for 3 hours. Then, the procedure was interrupted, the blood lines disconnected and the filter and blood lines washed by pumping saline instead of blood to check for the presence of macroscopic blood clots.
The amount of melagatran in plasma was quantified using liquid chromatographic and mass spectrometric methods (BA-285, AstraZeneca R&D, Mölndal, Sweden).

thrombin [5] = biological target: T1, thrombin; details: during dialysis session
Method: For the determination of activated partial thromboplastin time (APTT), ecarin clotting time (ECT) and the amount of melagatran in plasma, twelve aliquots of blood were drawn at specific time points into plastic tubes containing one volume of 0.13 M sodium citrate. Plasma was recovered after immediate centrifugation (10,000 g for 5 minutes) and stored at −20° C. prior to analysis.
APTT was determined using a KC10 A micro coagulometer (Amelung, Lemago, Germany). 25 μL of citrate plasma was incubated with 25 μL of PTT-Automate reagent (Diagnostica Stago, Asnieres, France) for 3 minutes. Coagulation was started using 25 μL of 0.025 M CaCl2 (Diagnostica Stago, Asniéres. France) and the time taken to the start of coagulation was measured.

| Structure (SMILES) | clearance [1] | macroscopic thrombi in filters and tubing after dialysis ([2]; 3 hour dialysis, both pigs, washed with saline over 15 minutes) | filter function ([2]; judged from iohexol clearance, 3 hours of dialysis) | pressure in the efferent blood-line ([2]; one pig, 3 hour dialysis, stable) | ecarin clotting times (ECT), relation to drug concentration in plasma (thrombin [3]) | concentration at 2 min ([4]; Swedish Land Race, pig, plasma, iv, 0.15 μmol/kg, start of dialysis, 2 minutes after i.v. bolus dose, both pigs, read-out: concentration of melagatran in plasma (efferent blood)) | time to equilibration ([4]; acutely anuric pig) | concentration of melagatran in the dialysis outlet, higher than on the blood side ([4]; except the very first sample at the start of dialysis) | concentration of melagatran in plasma, level-off ([4]; over the first ˜0 minutes of dialysis, then quite constant, dialysing solution 1 μM expected) | APTT times, relation to melagatran concentration (thrombin [5]) |
| --- | --- | --- | --- | --- | --- | --- | --- | --- | --- | --- |
| CC(=O)N(CC(O)CO)c1c(I)c(C(=O)NCC(O)CO)c(I)c(C(=O)NCC(O)CO)c1I (stereo not shown) [iohexol] | ~150 mL/min | – | – | – | – | – | – | – | – | – |
| N=C(N)c1ccc(CNC(=O)[C@@H]2CCN2C(=O)[C@H](NCC(=O)O)C2CCCCC2)cc1 [melagatran, HOOC—CH2—(R)Cgl-Aze-Pab-H] | – | macroscopic thrombi had not been formed | filter function was maintained over the full 3 hours of dialysis | about 275 mm Hg | closely reflected drug concentrations in plasma | 900 to 1000 nM | within one hour | about 0.2 μM | about 0.25 μM | proportional to the logarithm of melagatran concentration |
